In the NIST ThermoML archive (doi:10.1016/j.fluid.2006.11.005):

Test: xn = mol fraction of the nth substance listed
Conditions: 101.33 kPa, Liquid

ClC(Cl)Cl [trichloromethane] + CCO
mass density [kg/m3]
Conditions | 288.15 K | 293.15 K | 298.15 K | 303.15 K | 308.15 K | 313.15 K
x2 = 0 | 1498.08 | 1488.64 | 1479.15 | 1469.61 | 1460.03 | 1450.41
x2 = 0.0485 | 1472.17 | 1462.84 | 1453.46 | 1444.03 | 1434.55 | 1425.03
x2 = 0.0997 | 1444.69 | 1435.55 | 1426.28 | 1416.99 | 1407.64 | 1398.25
x2 = 0.1993 | 1389.44 | 1380.64 | 1371.77 | 1362.83 | 1353.83 | 1344.78
x2 = 0.2999 | 1331.01 | 1322.64 | 1314.2 | 1305.7 | 1297.12 | 1288.5
x2 = 0.4002 | 1269.36 | 1261.46 | 1253.5 | 1245.47 | 1237.37 | 1229.18
x2 = 0.4984 | 1204.89 | 1197.52 | 1190.08 | 1182.57 | 1174.99 | 1167.34
x2 = 0.5504 | 1168.93 | 1161.84 | 1154.69 | 1147.44 | 1140.19 | 1132.84
x2 = 0.6001 | 1133.49 | 1126.69 | 1119.83 | 1112.9 | 1105.9 | 1098.85
x2 = 0.6949 | 1062.09 | 1055.88 | 1049.61 | 1043.28 | 1036.89 | 1030.44
x2 = 0.794 | 981.537 | 976.02 | 970.455 | 964.839 | 959.165 | 953.436
x2 = 0.8503 | 933.183 | 927.998 | 922.772 | 917.5 | 912.175 | 906.798
x2 = 0.9001 | 888.356 | 883.494 | 878.595 | 873.653 | 868.659 | 863.612
